Ends that are not written are not given here.
How the values were obtained:
p21 = conditions: cited from earlier work
Source text: P21 has also shown anti‐apoptotic activity, which could contribute to antagonizing the p53‐mediated apoptotic response.

human MDM2 = human MDM2 (Homo sapiens, UniProt Q00987); assay: in vitro affinity to MDM2 (dissociation constant); conditions: Scramble3S with spread ± 0.028, binding method not described
[1] = test system: SESN2, IGF1R, STAT1 mRNA in HCT116 cells; assay: SESN2, IGF1R, STAT1 mRNA RT-qPCR in HCT116; type: cell-based, human; conditions: HCT116, 48 h
Protocol: (§1) Gene expression was evaluated 48 h after treatment using quantitative real‐time PCR (7900HT Fast; Applied Biosystems, Foster City, CA, USA). RNA extraction was performed using TRIzol® Reagent (Invitrogen, Waltham, MA, USA). RNA (500/1000 ng from cells or mice, respectively) was reverse transcribed with SMART MMLV Reverse Transcriptase (Takara, Shiga, Japan) and subjected to PCR amplification using the SensiMix SYBR Lox‐ROX Kit (Meridian Bioscience, Cincinnati, OH, USA).

p21 mRNA in HCT116 cells = assay: p21 mRNA RT-qPCR in HCT116; type: cell-based, human; conditions: HCT116, 48 h; three independent experiments
Protocol: as §1

p21 mRNA in LoVo cells = assay: p21 mRNA RT-qPCR in LoVo; type: cell-based, human; conditions: 48 h, three independent experiments
Protocol: as §1

[2] = test system: p21 mRNA in immortalized lymphoblastoid cells (LCLs) from healthy donors; assay: p21 mRNA RT-qPCR in lymphoblastoid cells; type: cell-based, human; conditions: 48 h
Source text: (§2) Human colorectal carcinoma cells HCT116 wt‐p53 (RRID: CVCL_0291) were purchased from Sigma‐Aldrich (Darmstadt, Germany). HCT116 exon two knockout TP53 (hereafter p53^−/−) were obtained from Vogelstein's Lab, LoVo (Johns Hopkins University, Baltimore, MD, USA) (RRID: CVCL_0399) from Vitiani's lab (Istituto Superiore di Sanità, Roma, Italy). HCT116 and LoVo cells were maintained in DMEM low glucose (Sigma‐Aldrich) supplemented with 10% FBS (Gibco™, Walthman, MA, USA), 1% penicillin–streptomycin (Sigma‐Aldrich), 1% L‐glutamine (Sigma‐Aldrich) at 37 °C, 5% CO2. Lymphoblastoid cells from healthy donors (LCLs) were grown in RPMI‐1640 (Sigma‐Aldrich), supplemented with 15% FBS (Gibco™), 1% penicillin–streptomycin (Sigma‐Aldrich), 1% L‐glutamine (Sigma‐Aldrich). Primary human myoblasts (Lonza, Basel, Switzerland) were grown in SkGM‐2 medium (Lonza). Cell lines were maintained at 37 °C, 5% CO2.
as §1

[3] = test system: immortalized lymphoblastoid cells (LCLs) from healthy donors; assay: Viability assay of lymphoblastoid cells (LCLs); type: cell-based, human; conditions: 4 biological replicates, Pep3S 10 µM, Nutlin 2.5 and 10 µM
miR-34a in HCT116 cells = assay: miR-34a expression RT-qPCR in HCT116; type: cell-based, human; conditions: HCT116, 48 h; two independent experiments
Protocol: (§3) For human p53 signaling pathway analysis, the RT^2 Profiler PCR Array 384 well ‘Human p53 signaling pathway’ was used, following the manufacturer's instructions (Qiagen, Venlo, The Netherlands). Differences of ≥ 1.3‐fold were used as […] criteria. The hsa‐miR‐34a expression was analyzed using the TaqMan™ MicroRNA Assay (Thermo). The results were normalized to those obtained using snRNA RNU6B. Common targets of p53 and miR‐34a were evaluated using miRGator v3.0, miRTarBase, and TargetScanHuman.

miR-34a in LoVo cells = assay: miR-34a expression RT-qPCR in LoVo; type: cell-based, human; conditions: 48 h, two independent experiments
Protocol: as §3

[4] = test system: p21 mRNA in shMDM4 HCT116 cells; assay: p21 mRNA in shMDM4 vs shLacZ HCT116; type: cell-based, human; conditions: doxycycline-inducible shMDM4 vs shLacZ HCT116, 48 h treatment
Protocol: ShMDM4 and shLacZ (as control) HCT116 (wt‐p53 and p53^−/−) cells were obtained by transfection of doxycycline‐inducible silencing plasmids using jetPRIME transfection reagent (Polyplus, Illkirch‐Graffenstaden, France). Cells were maintained in DMEM low glucose (Sigma‐Aldrich) supplemented with 10% FBS (Gibco™) and 1% penicillin–streptomycin (Sigma‐Aldrich). After 24 h, the cells were selected with […] puromycin (Sigma‐Aldrich). Silencing was induced with 1 μg·mL^−1 doxycycline.
as §1

p53 = conditions: ref [4]; cited from earlier work
Source text: The extent to which these additional events could be attributed to the dissociated proteins MDM4 or MDM2 remains to be ascertained. Indeed, the potential persistence of MDM2 and MDM4 binding to p53 represents a unique feature of p53 reactivating molecules. […] This is probably mediated by the binding of MDM2 to p53, which, although with reduced efficiency, controls the p53 protein levels. In ad ...

[5] = test system: human p53 pathway target genes in HCT116 cells; assay: RT2 Profiler PCR Array Human p53 signaling pathway, HCT116; type: cell-based
Protocol: as §3

[6] = test system: p21 mRNA in HCT116 xenograft tumors; assay: p21 mRNA RT-qPCR in xenograft tumors; type: in vivo, mouse; conditions: n Pep3 = 3, n Pep3S = 5
Protocol: as §1
Animal studies obtained ethical approval from the Ministry of Health (Protocol N° 79/2023‐PR) and were conducted conforming to the institutional guidelines in compliance with named Italian legislation (DL N116, GU, suppl. 40, 18‐2‐1992). Inbred BALB/c nude mice (CAnN.Cg‐Foxn1^nu/J) obtained from the CNR‐IBBC‐EMMA‐Infrafrontier animal facility were housed in two per cage in the CNR‐IBBC‐EMMA‐Infrafrontier animal house. All animals were housed under controlled lighting conditions (daily light period, 07.00–19.00 h) at 20 ± 2° C, with ad libitum access to food (Emma 23, Mucedola, Settimo Milanese, Italy) and chlorinated filtered water. […] Tumor growth was followed and analyzed by luciferase activity over time. […] Bioluminescence acquisitions were performed with a Hybrid OI/CT system (MILabs, Houten, The Netherlands), and the images were analyzed using MILABS‐OI‐PP software. […]

[7] = ref [20], cited from earlier work
Source text: To test Pep3S's tumor‐suppressive properties, we focused on colorectal cancer (CRC) cell lines. The frequency of the wild‐type (wt) p53 gene in CRC is approximately 40%, which offers a potential window for the therapeutic application of p53‐reactivating molecules. […] BIK levels were increased by Pep3S. […] To understand the molecular pathways underlying Pep3S activity, we analyzed differentially expressed genes (DEGs) by Pep3S and Pep3 compared to a mix of Scramble3 and Scramble3S in HCT116 cells using a p53‐transcriptional array containing 80 validated targets of the human p53 pat ...

HCT116 cells (wt-p53) = assay: PrestoBlue viability assay, 2D HCT116; type: cell-based, human; conditions: 2D HCT116, 96 h, three independent experiments
Source text: as §2
Treatments (0.1% DMSO, 10 μM all peptides, 20 μM cisplatin, 10 μM Nutlin‐3a (Sigma‐Aldrich)) were administered every other day. […]
Cell viability was monitored every other day using PrestoBlue™ HS Cell Viability Reagent (Thermo Fisher Scientific). The fluorescence signal was read at 45′ (for 2D) or 1 h (for spheroids) using a spectrophotometer plate reader (Varioskan™ LUX; Thermo Fisher Scientific). Fluorescence excitation/emission: 570/610 nm.

human myoblasts = assay: Proliferation of human myoblasts; type: cell-based; conditions: healthy human myoblasts
Source text: as §2

[8] = comparative analysis, miRGator v3.0, miRTarBase, TargetScanHuman
[9] = heat map of DEGs modulated by Pep3 only

Chain of human MDM2 (Q00987 whole entry): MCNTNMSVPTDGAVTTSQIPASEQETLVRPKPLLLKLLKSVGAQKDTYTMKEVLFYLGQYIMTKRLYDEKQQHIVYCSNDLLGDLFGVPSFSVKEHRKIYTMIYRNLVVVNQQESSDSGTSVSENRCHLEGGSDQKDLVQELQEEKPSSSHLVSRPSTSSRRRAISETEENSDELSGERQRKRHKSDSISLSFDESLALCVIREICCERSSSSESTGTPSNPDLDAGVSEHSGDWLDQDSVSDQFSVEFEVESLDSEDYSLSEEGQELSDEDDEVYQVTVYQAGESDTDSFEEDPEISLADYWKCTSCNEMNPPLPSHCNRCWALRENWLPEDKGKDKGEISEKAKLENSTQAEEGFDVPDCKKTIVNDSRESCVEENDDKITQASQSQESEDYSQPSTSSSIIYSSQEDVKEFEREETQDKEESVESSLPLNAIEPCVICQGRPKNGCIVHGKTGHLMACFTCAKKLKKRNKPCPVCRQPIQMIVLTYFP

In the case of `Cc1ccnc(NC(c2cccc(Cl)c2Cl)c2ccc3cccnc3c2O)c1` (centres unmarked) [MMRi64], the p21 levels (p21; ref [21]) is given as “minimal induction of p21 followed by its strong downregulation”.
In the case of VAIKF [Scramble3S], the Kd (human MDM2) is reported as 0.447 nM.
For `OCc1ccc(-c2ccc(-c3ccc(CO)s3)o2)s1` [RITA], the p21 protein levels (p21; ref (43)) is given as “caused the downregulation of p21 protein levels”.
With `COc1ccc(C2=N[C@@H](c3ccc(Cl)cc3)[C@@H](c3ccc(Cl)cc3)N2C(=O)N2CCNC(=O)C2)c(OC(C)C)c1` [Nutlin‐3a] the “levels of some p53 targets by RT-qPCR” value ([1]; Fig. S3C,D) was “opposite activity by upregulating the levels of some of these targets”, the “SESN2 mRNA level” value ([1]; two independent experiments) was “strong upregulation of SESN2” and the “p21 mRNA levels” value (p21 mRNA in HCT116 cells) was “strongly induced p21 expression”. For the same compound, the “p21 mRNA levels” value (p21 mRNA in LoVo cells) was “strongly induced p21 expression”, the p21 levels [2] was “highly potent” and the cell proliferation [3] was “highly potent”. The miR-34a levels (miR-34a in HCT116 cells) was “induced miR‐34a expression”, the miR-34a levels (miR-34a in LoVo cells) was “induced miR‐34a expression” and the “effect of MDM4 silencing on p21 regulation” value [4] was “ineffective in the upregulation mediated by Nutlin‐3a”. For the same compound, the p53 levels (p53) was “increase in p53 levels”.
For Ac-KEIQLVIKVFIA-NH2 [Pep3], the Kd (human MDM2) was 0.245 ± 0.029 nM, the “shared DEGs varying significantly between Pep3 and Pep3S” value ([5]; HCT116) was 11/16 and the “p21 levels in p53 array” value ([5]; HCT116, p53 array) was “not significantly altered”. The “downregulated DEGs that are miR-34a targets, common to both peptides” value [5, 8] was 8 of the 10, the “uniquely downregulated DEGs that are miR-34a targets” value [5, 8] was 4/7 and the ADGRB1 expression [5, 9] was 0.64. For the same compound, the BAX expression [5, 9] was 0.55, the EGFR expression [5, 9] was 0.50 and the FASLG expression [5, 9] was 3.64. It also gave an MCL1 expression [5, 9] of 0.59, an NFKB1 expression [5, 9] of 0.51 and a PRKCA expression [5, 9] of 0.53. The PTEN expression [5, 9] was 0.59, the “DEGs unique to the peptide” value ([5]; vs Scramble mix, HCT116) was 8/33 and the “DEG mRNA levels by RT-qPCR” value ([1]; SESN2, IGF1R, STAT1, two independent experiments) was “confirmed the downregulation of some of these DEGs”. The “p21 mRNA levels” value (p21 mRNA in HCT116 cells) was “Although less severe, Pep3 caused a similar decrease”, the “p21 mRNA levels” value (p21 mRNA in LoVo cells) was “Although less severe, Pep3 caused a similar decrease” and the “p21 mRNA levels” value [6] was “Although less severe, Pep3 caused a similar decrease”. For the same compound, the “mediators of pro-apoptotic activity” value ([7]; PIG3 and BIK) was “mediated by the activation of the pro‐oxidant p53‐targets PIG3 and BIK”, the IC50 ([7]; compared with Pep3S IC50, cell line not given) was 10000 nM and the “pro-apoptotic activity linked to oxidative stress” value [7] was “linked to the activation of an oxidative stress response”.
In the case of KVFIA [Pep3S], the Kd (human MDM2) is reported as 0.152 ± 0.007 nM, the IC50 (HCT116 cells (wt-p53)) is reported as 5540 nM and the cell proliferation (human myoblasts) is reported as “did not alter cell proliferation”. The cell proliferation [3] was “ineffective in reducing p21 levels and cell proliferation”.

— paper PMC12330940, “Targeting the MDM2‐MDM4 interaction interface reveals an otherwise therapeutically active wild‐type p53 in colorectal cancer” (Molecular Oncology, 2025)
